Tests used:
Experiment in all cases: RBC kinase panel
Assay type in all cases: biochemical
Details in all cases: ATP 10 μM, Data1, Data2
P38a/MAPK14 = target: T1, P38a/MAPK14 (Homo sapiens, UniProt Q16539)
T1 construct: purchased Reaction Biology Corporation
Method in brief: (§1)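 Kinases from a 369-member human panel were incubated with 1 μM compound under 10 μM ATP, and every assay was done in duplicate.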

c-MER = target: T2, c-MER (Homo sapiens, UniProt Q12866)
T2 construct: purchased Reaction Biology Corporation
Method in brief: as §1

TSSK3/STK22C = target: T3, TSSK3/STK22C (Homo sapiens, UniProt Q96PN8)
T3 construct: purchased Reaction Biology Corporation
Method in brief: as §1

CLK3 = target: T4, CLK3 (Homo sapiens, UniProt P49761)
T4 construct: purchased Reaction Biology Corporation
Method in brief: as §1

MAPKAPK3 = target: T5, MAPKAPK3 (Homo sapiens, UniProt Q16644)
T5 construct: purchased Reaction Biology Corporation
Method in brief: as §1

IR = target: T6, IR (Homo sapiens, UniProt P06213)
T6 construct: purchased Reaction Biology Corporation
Method in brief: as §1

PAK2 = target: T7, PAK2 (Homo sapiens, UniProt Q13177)
T7 construct: purchased Reaction Biology Corporation
Method in brief: as §1

PKCa = target: T8, PKCa (Homo sapiens, UniProt P17252)
T8 construct: purchased Reaction Biology Corporation
Method in brief: as §1

P38g = target: T9, P38g (Homo sapiens, UniProt P53778)
T9 construct: purchased Reaction Biology Corporation
Method in brief: as §1

PKCmu/PRKD1 = target: T10, PKCmu/PRKD1 (Homo sapiens, UniProt Q15139)
T10 construct: purchased Reaction Biology Corporation
Method in brief: as §1

MST1/STK4 = target: T11, MST1/STK4 (Homo sapiens, UniProt Q13043)
T11 construct: purchased Reaction Biology Corporation
Method in brief: as §1

CK1a1 = target: T12, CK1a1 (Homo sapiens, UniProt P48729)
T12 construct: purchased Reaction Biology Corporation
Method in brief: as §1

DRAK1/STK17A = target: T13, DRAK1/STK17A (Homo sapiens, UniProt Q9UEE5)
T13 construct: purchased Reaction Biology Corporation
Method in brief: as §1

EPHA1 = target: T14, EPHA1 (Homo sapiens, UniProt P21709)
T14 construct: purchased Reaction Biology Corporation
Method in brief: as §1

BRSK1 = target: T15, BRSK1 (Homo sapiens, UniProt Q8TDC3)
T15 construct: purchased Reaction Biology Corporation
Method in brief: as §1

BRK = target: T16, BRK (Homo sapiens, UniProt Q13882)
T16 construct: purchased Reaction Biology Corporation
Method in brief: as §1

EPHA7 = target: T17, EPHA7 (Homo sapiens, UniProt Q15375)
T17 construct: purchased Reaction Biology Corporation
Method in brief: as §1

PHKg2 = target: T18, PHKg2 (Homo sapiens, UniProt P15735)
T18 construct: purchased Reaction Biology Corporation
Method in brief: as §1

LCK2/ICK = target: T19, LCK2/ICK (Homo sapiens, UniProt Q9UPZ9)
T19 construct: purchased Reaction Biology Corporation
Method in brief: as §1

MNK2 = target: T20, MNK2 (Homo sapiens, UniProt Q9HBH9)
T20 construct: purchased Reaction Biology Corporation
Method in brief: as §1

IKKb/IKBKB = target: T21, IKKb/IKBKB (Homo sapiens, UniProt O14920)
T21 construct: purchased Reaction Biology Corporation
Method in brief: as §1

RIPK2 = target: T22, RIPK2 (Homo sapiens, UniProt O43353)
T22 construct: purchased Reaction Biology Corporation
Method in brief: as §1

GSK3b = target: T23, GSK3b (Homo sapiens, UniProt P49841)
T23 construct: purchased Reaction Biology Corporation
Method in brief: as §1

CDK18/cyclin Y (PCTK3) = target: T24, CDK18/cyclin Y (PCTK3) (Homo sapiens, UniProt Q07002)
T24 construct: purchased Reaction Biology Corporation
Method in brief: as §1

VRK1 = target: T25, VRK1 (Homo sapiens, UniProt Q99986)
T25 construct: purchased Reaction Biology Corporation
Method in brief: as §1

MARK1 = target: T26, MARK1 (Homo sapiens, UniProt Q9P0L2)
T26 construct: purchased Reaction Biology Corporation
Method in brief: as §1

TESK2 = target: T27, TESK2 (Homo sapiens, UniProt Q96S53)
T27 construct: purchased Reaction Biology Corporation
Method in brief: as §1

PEAK1 = target: T28, PEAK1 (Homo sapiens, UniProt Q9H792)
T28 construct: purchased Reaction Biology Corporation
Method in brief: as §1

STK16 = target: T29, STK16 (Homo sapiens, UniProt O75716)
T29 construct: purchased Reaction Biology Corporation
Method in brief: as §1

RET = target: T30, RET (Homo sapiens, UniProt P07949)
T30 construct: purchased Reaction Biology Corporation
Method in brief: as §1

NEK1 = target: T31, NEK1 (Homo sapiens, UniProt Q96PY6)
T31 construct: purchased Reaction Biology Corporation
Method in brief: as §1

EPHB4 = target: T32, EPHB4 (Homo sapiens, UniProt P54760)
T32 construct: purchased Reaction Biology Corporation
Method in brief: as §1

PAK4 = target: T33, PAK4 (Homo sapiens, UniProt O96013)
T33 construct: purchased Reaction Biology Corporation
Method in brief: as §1

T11 sequence (Q13043 whole entry): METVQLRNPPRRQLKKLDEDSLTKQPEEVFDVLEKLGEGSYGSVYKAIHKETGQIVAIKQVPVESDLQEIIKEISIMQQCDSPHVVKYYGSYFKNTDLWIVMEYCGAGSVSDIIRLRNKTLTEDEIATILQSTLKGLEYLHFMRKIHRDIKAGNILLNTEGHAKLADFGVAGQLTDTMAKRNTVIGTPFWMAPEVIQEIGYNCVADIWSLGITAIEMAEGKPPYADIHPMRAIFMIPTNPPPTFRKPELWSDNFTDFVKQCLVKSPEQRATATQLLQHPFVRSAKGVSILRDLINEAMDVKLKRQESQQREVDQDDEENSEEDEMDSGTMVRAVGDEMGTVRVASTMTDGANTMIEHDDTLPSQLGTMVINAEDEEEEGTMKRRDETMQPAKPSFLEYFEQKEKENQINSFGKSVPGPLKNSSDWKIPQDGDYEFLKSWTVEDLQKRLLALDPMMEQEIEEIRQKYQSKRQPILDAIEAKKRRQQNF
T13 sequence (Q9UEE5 whole entry): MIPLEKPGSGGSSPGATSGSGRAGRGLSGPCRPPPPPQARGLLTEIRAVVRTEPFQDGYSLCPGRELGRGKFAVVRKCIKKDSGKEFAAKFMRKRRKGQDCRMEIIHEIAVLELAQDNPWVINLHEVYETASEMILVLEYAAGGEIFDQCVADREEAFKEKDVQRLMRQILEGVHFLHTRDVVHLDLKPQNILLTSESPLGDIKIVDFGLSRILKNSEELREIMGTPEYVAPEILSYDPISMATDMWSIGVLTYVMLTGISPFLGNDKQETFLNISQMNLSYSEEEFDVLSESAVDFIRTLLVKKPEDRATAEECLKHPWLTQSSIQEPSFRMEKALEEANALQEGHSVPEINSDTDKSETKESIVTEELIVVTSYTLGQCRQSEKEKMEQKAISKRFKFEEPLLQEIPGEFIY
T30 sequence (P07949 29-1114): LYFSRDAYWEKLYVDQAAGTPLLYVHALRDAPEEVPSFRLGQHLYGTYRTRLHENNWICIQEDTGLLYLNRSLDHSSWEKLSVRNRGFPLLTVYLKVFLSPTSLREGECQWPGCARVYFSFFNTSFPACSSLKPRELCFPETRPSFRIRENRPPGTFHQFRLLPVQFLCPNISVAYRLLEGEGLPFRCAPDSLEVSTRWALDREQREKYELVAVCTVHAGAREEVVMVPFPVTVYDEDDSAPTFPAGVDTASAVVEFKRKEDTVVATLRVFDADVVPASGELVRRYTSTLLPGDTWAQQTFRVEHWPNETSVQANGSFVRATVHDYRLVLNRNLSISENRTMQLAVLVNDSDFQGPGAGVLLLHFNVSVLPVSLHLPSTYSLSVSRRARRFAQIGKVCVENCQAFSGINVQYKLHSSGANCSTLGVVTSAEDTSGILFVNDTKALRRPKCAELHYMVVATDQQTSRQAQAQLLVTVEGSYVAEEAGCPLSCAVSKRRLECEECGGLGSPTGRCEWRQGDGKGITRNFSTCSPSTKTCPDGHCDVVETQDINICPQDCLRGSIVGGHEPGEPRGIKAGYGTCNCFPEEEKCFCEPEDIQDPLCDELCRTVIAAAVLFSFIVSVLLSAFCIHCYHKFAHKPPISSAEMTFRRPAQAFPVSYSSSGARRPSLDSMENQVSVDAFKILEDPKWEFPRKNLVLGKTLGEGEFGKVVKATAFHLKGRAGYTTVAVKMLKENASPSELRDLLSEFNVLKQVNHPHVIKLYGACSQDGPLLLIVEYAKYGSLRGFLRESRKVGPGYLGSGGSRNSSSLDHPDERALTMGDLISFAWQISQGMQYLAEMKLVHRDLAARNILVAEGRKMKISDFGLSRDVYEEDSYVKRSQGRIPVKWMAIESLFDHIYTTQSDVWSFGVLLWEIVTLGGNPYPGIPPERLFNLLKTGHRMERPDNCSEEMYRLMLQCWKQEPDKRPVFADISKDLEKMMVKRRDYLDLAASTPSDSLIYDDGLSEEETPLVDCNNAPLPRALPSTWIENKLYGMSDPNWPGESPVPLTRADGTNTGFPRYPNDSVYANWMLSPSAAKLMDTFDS
T20 sequence (Q9HBH9 whole entry): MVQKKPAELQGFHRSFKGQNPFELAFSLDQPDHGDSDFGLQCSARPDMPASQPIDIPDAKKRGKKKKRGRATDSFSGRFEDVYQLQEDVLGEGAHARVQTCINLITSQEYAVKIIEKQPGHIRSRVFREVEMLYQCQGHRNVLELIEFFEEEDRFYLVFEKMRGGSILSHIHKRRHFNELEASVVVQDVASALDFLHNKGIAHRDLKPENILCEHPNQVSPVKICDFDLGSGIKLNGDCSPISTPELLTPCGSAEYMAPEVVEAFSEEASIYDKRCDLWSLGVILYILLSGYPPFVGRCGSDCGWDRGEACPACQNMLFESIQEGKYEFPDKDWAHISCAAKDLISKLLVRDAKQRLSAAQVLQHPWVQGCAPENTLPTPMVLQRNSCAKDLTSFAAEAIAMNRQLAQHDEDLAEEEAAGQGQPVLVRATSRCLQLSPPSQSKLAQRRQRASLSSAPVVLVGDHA
T28 sequence (Q9H792 whole entry): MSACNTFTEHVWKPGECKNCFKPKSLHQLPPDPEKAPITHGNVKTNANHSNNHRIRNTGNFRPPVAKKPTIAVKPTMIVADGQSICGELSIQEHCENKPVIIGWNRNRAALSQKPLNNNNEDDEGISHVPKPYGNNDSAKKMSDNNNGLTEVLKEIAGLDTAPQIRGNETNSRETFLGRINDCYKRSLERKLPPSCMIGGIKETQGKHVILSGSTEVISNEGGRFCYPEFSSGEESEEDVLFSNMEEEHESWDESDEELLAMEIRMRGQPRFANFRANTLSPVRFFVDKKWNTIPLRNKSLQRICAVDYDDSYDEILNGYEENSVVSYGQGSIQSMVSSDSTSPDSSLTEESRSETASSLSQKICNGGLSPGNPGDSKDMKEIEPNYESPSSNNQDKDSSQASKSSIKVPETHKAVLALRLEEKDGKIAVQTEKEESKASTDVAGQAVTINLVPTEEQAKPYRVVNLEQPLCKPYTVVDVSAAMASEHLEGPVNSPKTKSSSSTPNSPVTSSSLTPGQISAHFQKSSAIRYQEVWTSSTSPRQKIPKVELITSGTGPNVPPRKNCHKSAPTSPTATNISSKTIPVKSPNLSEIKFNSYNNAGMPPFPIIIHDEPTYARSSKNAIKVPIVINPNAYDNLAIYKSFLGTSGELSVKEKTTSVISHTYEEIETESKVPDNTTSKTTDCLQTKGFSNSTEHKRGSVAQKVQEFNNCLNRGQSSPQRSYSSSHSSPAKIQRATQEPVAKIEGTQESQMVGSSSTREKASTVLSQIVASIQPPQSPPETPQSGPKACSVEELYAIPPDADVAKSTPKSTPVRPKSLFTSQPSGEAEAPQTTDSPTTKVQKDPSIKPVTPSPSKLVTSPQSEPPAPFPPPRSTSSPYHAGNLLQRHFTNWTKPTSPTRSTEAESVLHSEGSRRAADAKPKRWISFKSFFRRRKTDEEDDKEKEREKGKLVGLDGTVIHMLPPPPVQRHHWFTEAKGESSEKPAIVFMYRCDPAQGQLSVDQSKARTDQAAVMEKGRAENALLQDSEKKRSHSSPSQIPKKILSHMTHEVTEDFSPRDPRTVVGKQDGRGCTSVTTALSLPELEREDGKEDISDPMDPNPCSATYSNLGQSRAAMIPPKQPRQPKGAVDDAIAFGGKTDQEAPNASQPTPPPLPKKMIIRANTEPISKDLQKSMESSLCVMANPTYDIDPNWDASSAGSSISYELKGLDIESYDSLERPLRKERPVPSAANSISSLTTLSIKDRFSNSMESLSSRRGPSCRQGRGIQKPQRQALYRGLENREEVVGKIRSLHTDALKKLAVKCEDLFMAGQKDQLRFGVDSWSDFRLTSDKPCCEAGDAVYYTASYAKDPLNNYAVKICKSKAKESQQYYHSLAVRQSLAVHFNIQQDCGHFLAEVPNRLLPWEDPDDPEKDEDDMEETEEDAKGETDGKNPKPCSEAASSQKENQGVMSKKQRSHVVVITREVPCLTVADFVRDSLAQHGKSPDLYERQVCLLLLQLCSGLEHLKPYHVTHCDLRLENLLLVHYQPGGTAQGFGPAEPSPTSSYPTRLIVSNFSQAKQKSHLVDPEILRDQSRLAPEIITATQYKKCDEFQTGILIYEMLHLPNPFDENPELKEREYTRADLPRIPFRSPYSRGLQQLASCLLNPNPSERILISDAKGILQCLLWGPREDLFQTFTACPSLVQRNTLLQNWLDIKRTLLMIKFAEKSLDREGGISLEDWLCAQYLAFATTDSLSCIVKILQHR
T15 sequence (Q8TDC3 whole entry): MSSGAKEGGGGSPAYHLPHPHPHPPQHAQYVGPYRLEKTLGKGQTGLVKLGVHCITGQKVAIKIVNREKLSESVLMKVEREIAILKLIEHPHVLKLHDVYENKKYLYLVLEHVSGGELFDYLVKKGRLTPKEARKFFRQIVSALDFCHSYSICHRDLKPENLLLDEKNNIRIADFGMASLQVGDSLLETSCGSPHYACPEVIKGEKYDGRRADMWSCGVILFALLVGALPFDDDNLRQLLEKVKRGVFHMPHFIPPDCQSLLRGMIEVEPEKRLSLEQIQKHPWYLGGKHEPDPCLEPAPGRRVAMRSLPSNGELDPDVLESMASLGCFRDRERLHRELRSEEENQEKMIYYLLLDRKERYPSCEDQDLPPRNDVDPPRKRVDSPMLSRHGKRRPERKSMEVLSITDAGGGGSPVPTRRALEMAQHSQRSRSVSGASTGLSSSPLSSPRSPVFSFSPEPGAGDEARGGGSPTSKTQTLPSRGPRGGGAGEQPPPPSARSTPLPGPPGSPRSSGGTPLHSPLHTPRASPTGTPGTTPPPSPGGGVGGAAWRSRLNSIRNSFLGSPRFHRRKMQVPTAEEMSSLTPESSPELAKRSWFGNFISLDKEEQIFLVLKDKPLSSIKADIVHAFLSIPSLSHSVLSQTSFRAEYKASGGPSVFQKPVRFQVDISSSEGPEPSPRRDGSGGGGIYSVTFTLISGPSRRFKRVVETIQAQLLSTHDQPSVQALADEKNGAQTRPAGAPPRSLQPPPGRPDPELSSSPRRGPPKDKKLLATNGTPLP

Compound: CC(=O)Nc1nc2ccc(-c3cnc(C)c(NC(=O)OC4CCCCC4)c3)cc2s1 [PK68, cyclohexyl (5-(2-acetamidobenzo[d]thiazol-6-yl)-2-methylpyridin-3-yl)carbamate]
- Activity% (P38a/MAPK14; 1 μM): 102.59%
- activity at 1 µM (P38a/MAPK14): 106%
- Activity% (c-MER; 1 μM): 84.20%
- activity at 1 µM (c-MER): 86%
- Activity% (TSSK3/STK22C; 1 μM): 103.77%
- activity at 1 µM (TSSK3/STK22C): 104%
- Activity% (CLK3; 1 μM): 99.85%
- activity at 1 µM (CLK3): 101%
- Activity% (MAPKAPK3; 1 μM): 100.67%
- activity at 1 µM (MAPKAPK3): 102%
- Activity% (IR; 1 μM): 81.00%
- activity at 1 µM (IR): 81.6%
- Activity% (PAK2; 1 μM): 104.24%
- activity at 1 µM (PAK2): 105%
- Activity% (PKCa; 1 μM): 98.94%
- activity at 1 µM (PKCa): 99.5%
- Activity% (P38g; 1 μM): 105.38%
- activity at 1 µM (P38g): 109%
- Activity% (PKCmu/PRKD1; 1 μM): 95.71%
- activity at 1 µM (PKCmu/PRKD1): 96.5%
- Activity% (MST1/STK4; 1 μM): 100.43%
- activity at 1 µM (MST1/STK4): 100%
- Activity% (CK1a1; 1 μM): 94.49%
- activity at 1 µM (CK1a1): 97%
- Activity% (DRAK1/STK17A; 1 μM): 90.72%
- activity at 1 µM (DRAK1/STK17A): 91.3%
- Activity% (EPHA1; 1 μM): 100.48%
- activity at 1 µM (EPHA1): 101%
- Activity% (BRSK1; 1 μM): 101.25%
- activity at 1 µM (BRSK1): 102%
- Activity% (BRK; 1 μM): 96.14%
- activity at 1 µM (BRK): 97.5%
- Activity% (EPHA7; 1 μM): 85.80%
- activity at 1 µM (EPHA7): 86.9%
- Activity% (PHKg2; 1 μM): 98.74%
- activity at 1 µM (PHKg2): 100%
- Activity% (LCK2/ICK; 1 μM): 100.77%
- activity at 1 µM (LCK2/ICK): 101%
- Activity% (MNK2; 1 μM): 88.77%
- activity at 1 µM (MNK2): 90.5%
- Activity% (IKKb/IKBKB; 1 μM): 107.97%
- activity at 1 µM (IKKb/IKBKB): 109%
- Activity% (RIPK2; 1 μM): 85.19%
- activity at 1 µM (RIPK2): 91.2%
- Activity% (GSK3b; 1 μM): 97.24%
- activity at 1 µM (GSK3b): 98.1%
- Activity% (CDK18/cyclin Y (PCTK3); 1 μM): 106.96%
- activity at 1 µM (CDK18/cyclin Y (PCTK3)): 107%
- Activity% (VRK1; 1 μM): 104.78%
- activity at 1 µM (VRK1): 105%
- Activity% (MARK1; 1 μM): 96.33%
- activity at 1 µM (MARK1): 97%
- Activity% (TESK2; 1 μM): 92.21%
- activity at 1 µM (TESK2): 94.3%
- Activity% (PEAK1; 1 μM): 100.13%
- activity at 1 µM (PEAK1): 103%
- Activity% (STK16; 1 μM): 85.85%
- activity at 1 µM (STK16): 88.2%
- Activity% (RET; 1 μM): 66.89%
- activity at 1 µM (RET): 67.7%
- Activity% (NEK1; 1 μM): 95.75%
- activity at 1 µM (NEK1): 96%
- Activity% (EPHB4; 1 μM): 99.18%
- activity at 1 µM (EPHB4): 101%
- Activity% (PAK4; 1 μM): 101.97%
- activity at 1 µM (PAK4): 104%

— publication PMC6591251, “Discovery of potent necroptosis inhibitors targeting RIPK1 kinase activity for the treatment of inflammatory disorder and cancer metastasis” (Cell Death & Disease, 2019)
